Patent US20100130600A1, “LIPOPROTEIN LIPASE AND ITS EFFECT ON STATIN TREATMENTS” (CEDARS-SINAI MEDICAL CENTER, priority 2007, published 2010)

Assay: Post-CABG Trial: lipid response to lovastatin therapy (baseline vs post-treatment lipid levels)
Assay type: in vivo, human
Method: As described herein, the inventors asked whether LPL haplotypes influence response to lipid-lowering therapy. They studied 830 subjects from the Post-Coronary Artery Bypass Graft trial, in which subjects with at least one patent saphenous vein graft were treated moderately or aggressively with lovastatin. A lipid profile was obtained at baseline and 4-5 years after treatment. 12 SNPs spanning the 3′ end of LPL were genotyped using the 5′-exonuclease (Taqman MBG) reaction. Haplotypes were constructed using the accelerated expectation maximization algorithm implemented in the program Haploview. Association with lipid response was evaluated using analysis of covariance (ANCOVA). Age, body mass index, race, current smoking status, time between CABG and study enrollment, and lovastatin treatment group were taken as covariates in the association analyses. […] Conversely, Haplotypes 6, 7, and 8 were each associated with increased HDL-C response to therapy compared to respective non-carriers. Haplotype 2 was associated with a smaller increment in triglycerides (Haplotype 2 carriers: +2.6% versus non-carriers: +11.8% change in triglycerides, P=0.02). These effects of LPL haplotypes on HDL-C and triglyceride response were independent of whether subjects were in the intensive or moderate treatment group. […] The most common haplotype, haplotype 1, was protective against graft worsening or occlusion. LPL may influence atherosclerosis risk through pleiotropic effects on each aspect of the metabolic syndrome.
This genetic association study is ancillary to the Post-Coronary Artery Bypass Graft Trial (Post-CABG Trial) (Taylor K D, Genet Med 2004, 6: 481-486; The Post Coronary Artery Bypass Graft Trial Investigators, N Engl J Med 1997, 336: 153-162). A total of 1351 subjects from seven clinical centers throughout North America were included in the clinical trial and all were eligible as participants in this genetic ancillary study. Inclusion and exclusion criteria have been previously described (The Post Coronary Artery Bypass Graft Trial Investigators, N Engl J Med 1997, 336: 153-162). Subjects were randomly assigned for treatment to lower LDL-cholesterol levels with lovastatin, aggressively (target LDL 1.55-2.20 mmol/L (60-85 mg/dL)), cholestryramine added to lovastatin if necessary to reach target) or moderately (target LDL 3.36-3.62 mmol/L (130-140 mg/dL)). For the genetic study, DNA was isolated from 903 subjects following standard protocols. Follow-up complete angiographic data, lipid values, and DNA were available from 891 of these individuals. Subjects in this genetic study were collected in the latter years of the larger Post-CABG trial.
All demographic, family history, medical history, and clinical data were collected as part of the Post-CABG Trial.14 The progression of atherosclerosis was quantitatively determined by comparison of an initial angiogram at enrollment with a follow-up angiogram repeated an average of 4.3 years later. Baseline and follow-up angiography were obtained with catheterization techniques that permitted computer-assisted quantitative measurement. An initially patent graft was defined as having progression of atherosclerosis if there was a decrease of 0.6 mm or more in lumen diameter at the site of greatest change at follow-up. Subjects with “progression of atherosclerosis” were defined as those subjects with one or more grafts showing progression. Graft occlusion was also assessed. Baseline and post-treatment lipid levels (total cholesterol, TC; LDL-cholesterol, LDL-C; HDL-cholesterol, HDL-C; and triglycerides, TG) were obtained.
The primary phenotypes analyzed for association with LPL haplotypes were: a) the progression of atherosclerosis, and b) lipid response to lovastatin therapy. Secondary analyses included association of the LPL haplotypes with baseline lipid and systolic and diastolic blood pressure (SBP and DBP) measurements. […]

[1] = 891 post-CABG subjects, mean ± SD (range)
[2] = aggressive treatment group (target LDL 60-85 mg/dL, cholestyramine added if necessary)
[3] = moderate treatment group (target LDL 130-140 mg/dL)

CC[C@H](C)C(=O)O[C@H]1C[C@@H](C)C=C2C=C[C@H](C)[C@H](CC[C@@H]3C[C@@H](O)CC(=O)O3)[C@H]21 [lovastatin]
HDL-C response [1]: 13.8 ± 24.4 (−61.9-153.1) % | LDL-C response [1]: −25.7 ± 20.6 (−78.8-45.9) % | Total cholesterol response [1]: −15.3 ± 16.3 (−58.4-43.5) % | Triglyceride response [1]: 7.5 ± 53.0 (−81.6-330.2) % | reduction in LDL-C (Post-CABG trial, overall): 26% | reduction in total cholesterol (TC) (Post-CABG trial, overall): 15% | reduction in LDL-C [2]: 37% | reduction in total cholesterol (TC) [2]: 23% | Response in HDL-C and triglycerides (TG) (aggressive versus moderate treatment group): did not differ between the two treatment groups | Percent change in HDL-C (carriers of LPL haplotype 12-1, mean ± SD): 12.6 ± 24.3 (568) % | change in triglycerides (carriers of LPL haplotype 12-2): +2.6% | Percent change in HDL-C (carriers of LPL haplotype 12-2, mean ± SD): 12.4 ± 24.5 (295) % | Percent change in HDL-C (carriers of LPL haplotype 12-3, mean ± SD): 14.2 ± 23.5 (262) % | Percent change in HDL-C (carriers of LPL haplotype 12-5, mean ± SD): 11.4 ± 25.6 (61) % | Percent change in HDL-C (carriers of LPL haplotype 12-6, mean ± SD): 24.8 ± 19.8 (52) % | Percent change in HDL-C (carriers of LPL haplotype 12-7, mean ± SD): 21.9 ± 24.1 (44) % | Percent change in HDL-C (carriers of LPL haplotype 12-8, mean ± SD): 23.0 ± 26.0 (43) % | reduction in LDL-C [3]: 14% | reduction in total cholesterol (TC) [3]: 7% | Percent change in HDL-C (non-carriers of LPL haplotype 12-1, mean ± SD): 15.2 ± 24.2 (261) % | change in triglycerides (non-carriers of LPL haplotype 12-2): +11.8% | Percent change in HDL-C (non-carriers of LPL haplotype 12-2, mean ± SD): 14.0 ± 24.2 (534) % | Percent change in HDL-C (non-carriers of LPL haplotype 12-3, mean ± SD): 13.1 ± 24.7 (567) % | Percent change in HDL-C (non-carriers of LPL haplotype 12-5, mean ± SD): 13.6 ± 24.2 (768) % | Percent change in HDL-C (non-carriers of LPL haplotype 12-6, mean ± SD): 12.7 ± 24.4 (777) % | Percent change in HDL-C (non-carriers of LPL haplotype 12-7, mean ± SD): 13.0 ± 24.3 (785) % | Percent change in HDL-C (non-carriers of LPL haplotype 12-8, mean ± SD): 12.8 ± 24.4 (786) %
